Experimental data reported in BindingDB's records for doi:10.1074/jbc.M004512200 (Schering-Plough Research Institute, 2000).
Values joined by “and” are separate entries in the source; they are usually repeats but may differ in a detail not shown here. Equal entries are not always repeated.

Assays:
[1] = biological target: T1, Leukotriene B4 receptor 2 (Homo sapiens, UniProt Q9NPC1)
T1 sequence (Q9NPC1 whole entry): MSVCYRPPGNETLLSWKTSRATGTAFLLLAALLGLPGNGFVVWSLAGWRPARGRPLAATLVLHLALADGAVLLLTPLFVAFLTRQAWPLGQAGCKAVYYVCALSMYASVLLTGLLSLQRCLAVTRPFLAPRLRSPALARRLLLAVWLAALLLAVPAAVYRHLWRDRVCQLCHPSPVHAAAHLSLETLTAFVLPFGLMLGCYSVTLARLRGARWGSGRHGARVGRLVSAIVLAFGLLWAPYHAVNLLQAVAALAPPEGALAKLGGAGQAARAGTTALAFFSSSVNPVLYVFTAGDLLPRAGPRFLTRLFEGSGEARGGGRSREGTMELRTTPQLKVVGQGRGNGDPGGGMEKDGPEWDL

[2] = biological target: Leukotriene B4 receptor 1 (Homo sapiens, UniProt Q15722)
Sequence of Leukotriene B4 receptor 1 (Q15722 whole entry): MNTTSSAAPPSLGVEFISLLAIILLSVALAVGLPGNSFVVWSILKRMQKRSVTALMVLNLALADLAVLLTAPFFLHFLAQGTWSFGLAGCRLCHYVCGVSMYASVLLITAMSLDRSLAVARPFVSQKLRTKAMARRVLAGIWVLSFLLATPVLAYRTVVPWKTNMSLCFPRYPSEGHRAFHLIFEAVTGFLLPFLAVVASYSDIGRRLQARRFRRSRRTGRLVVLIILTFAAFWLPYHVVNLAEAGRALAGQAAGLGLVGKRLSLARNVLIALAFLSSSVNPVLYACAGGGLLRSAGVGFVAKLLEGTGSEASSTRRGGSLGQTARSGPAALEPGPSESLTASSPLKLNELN

Compound | Ki [1] | Ki [2]
CCCCC[C@@H](O)/C=C/C=C\C/C=C\C/C=C\CCCC(=O)O | 0.173 µM | > 18 µM
CCCCCC=CCC=CC=CC=CC(SCC(NC(=O)CCC(N)C(=O)O)C(=O)NCC(=O)O)C(O)CCCC(=O)O (centres undefined) [CAS_5283121] | > 9 µM | > 1.9 µM
O=C(O)CCCC=CCC=CCC=CCC=CCCCCCO [CAS_5283157] | > 1 µM | > 10 µM
CCCCC/C=C\C/C=C\CC=CC=CC(=O)CCCC(=O)O [ETE-5-Oxo] | > 1 µM | > 1 µM
CCCCC/C=C\C/C=C\C/C=C\C=C\C(O)CCCC(=O)O [HETE-5(S)] | 1 µM and 3 µM | 1 µM and > 10 µM
CC/C=C/CC=CCC=CC=CC=CC1OC1CCCC(=O)OC (centres undefined) [LTA5-ME] |  | > 10 µM
CCCCCCCCC=CC=CC=CC(SCC(NC(=O)CCC(N)C(=O)O)C(=O)NCC(=O)O)C(O)CCCC(=O)O (centres undefined) [LTC3] | > 4 µM | > 14 µM
CC/C=C/C=C/CCC=CC=CC=CC(SCC(NC(=O)CCC(N)C(=O)O)C(=O)NCC(=O)O)C(O)CCCC(=O)O (centres undefined) [LTC5] | 3 µM | > 10 µM
CCCCCCCCC=CC=CC=CC(SCC(N)C(=O)NCC(=O)O)C(O)CCCC(=O)O (centres undefined) [LTD3] | 1 µM | > 10 µM
CC/C=C/CC=CCC=CC=CC=CC(SCC(N)C(=O)NCC(=O)O)C(O)CCCC(=O)O (centres undefined) [LTD5] |  | > 10 µM
CCCCCCCCC=CC=CC=CC(SCC(N)C(=O)O)C(O)CCCC(=O)O (centres undefined) [LTE3] | 4 µM | > 10 µM
CCCCCC=CCC=CCC=CCC#CCCCC(=O)O [NSC_1777] | 1 µM | 
CCCCCC=CCC=CC=CC=CC1OC1CCCC(=O)OC (centres undefined) [NSC_126534] | > 10 µM | > 10 µM
CCCCCCC=CC(=O)C=CC=CCC=CCCCC(=O)O [NSC_5283162] | 0.155 µM | > 1 µM
CCCCCC=CCC=CC=CC(O)CC=CCCCC(=O)O (centres undefined) [NSC_5283163] | > 1 µM | > 30 µM
CC(C)(O)c1ccccc1CCC(S)c1cccc(C=Cc2ccc3ccc(Cl)cc3n2)c1 (centres undefined) [NSC_5311297] | > 10 µM | > 10 µM

Further lines, results first:

Ki [1] | Ki [2] | Compound
> 10 µM | 4 µM | CCCCC/C=C\C\C=C/C=C/C=C/[C@@H](SC[C@H](N)C(=O)NCC(=O)O)[C@@H](O)CCCC(=O)O [5S-hydroxy-6R-(S-cysteinylglycinyl)-7E,9E,11E,14Z-eicosatetraenoic acid]
5.43 µM | 0.025 µM | CCCCC/C=C\C[C@H](O)/C=C/c1cccc(C[C@H](O)CCCCO)n1 [(5R)-6-[6-[(1E,3S,5Z)-3-hydroxyundeca-1,5-dienyl]pyridin-2-yl]hexane-1,5-diol]
6 µM | 2.37 µM | CCCCC/C=C\C\C=C/C=C/C=C/[C@@H](SC[C@H](N)C(=O)O)[C@@H](O)CCCC(=O)O [(5S-(5R*,6S*(S*),7E,9E,11Z,14Z))-6-((2-Amino-2-carboxyethyl)thio)-5-hydroxy-7,9,11,14-eicosatetraenoic acid]
> 10 µM | 5 µM | CCCCCCCCC=CC=CC=CC1OC1CCCC(=O)OC (centres undefined) [LTA3-ME]
1.23 µM | 0.0051 µM | CCCCC/C=C\C[C@@H](O)/C=C/C=C/C=C\[C@@H](O)CCCC(=O)NCCCN [LTB4-3-aminopropylamide]
0.041 µM | 0.00054 µM | O=C(O)CCC[C@H](O)\C=C/C=C/C=C/[C@H](O)C/C=C\CCCCCO [LTB4-20-hydroxy]
1.4 µM | 1.44 µM | CCCCCC(O)C=CC=CC=CC=CC(O)C(O)CCCC(=O)O (centres undefined) [NSC_5280914]
6 µM | 5.7 µM | CCCCCC=CCC=CC=CC=CC(SCC(NC(=O)CCC(N)C(=O)O)C(=O)O)C(O)CCCC(=O)O (centres undefined) [NSC_5283124]
0.0094 µM | 0.0037 µM | CCC=CCC=CCC(O)C=CC=CC=CC(O)CCCC(=O)O (centres undefined) [NSC_5283125]
> 10 µM | 7.12 µM | COc1cc(C(=O)NS(=O)(=O)c2ccccc2C)ccc1Cc1cn(C)c2ccc(NC(=O)OC3CCCC3)cc12 [cyclopentyl 3-(2-methoxy-4-((o-tolylsulfonyl)carbamoyl)benzyl)-1-methylindole-5-carbamate]
